Data published in patent publication US20080305186A1, “Method and Composition for the Treatment of Cardiac Hypertrophy” (BOARD OF REGENTS, THE UNIVERSITY OF TEXAS SYSTEM, priority 2007, published 2008).

System: cardiac gene expression
Test: Microarray analysis of cardiac gene expression (GeneChip Mouse Genome 430 2.0)
Assay type: in vivo, mice
Details: mouse heart, vs isoproterenol only (CH)
Procedure: Microarray Sample Preparation and Analysis. Animal hearts were rapidly removed, and the atria and right ventricles were cut and immediately plunged into TRIzol Reagent (Life Technologies). Total RNA was isolated following the manufacturer's instructions, purified by phenol-chloroform extraction and then ethanol precipitation, and 20 μg further processed for microarray analysis. Briefly, cDNA synthesis, in vitro transcription, and labeling and fragmentation to produce the oligonucleotide probes were performed as instructed by the GeneChip manufacturer (Affymetrix). The probes were first hybridized to a test array (Affymetrix) and then to the GeneChip Mouse Genome 430 2.0 Array, using the GeneChip Hybridization Oven 640. The chips were washed in a GeneChip Fluidics Station 450 (Affymetrix), and the results were visualized with a GeneChip G7 scanner (Affymetrix). RMA normalization, pairwise comparisons, Student's t test and Benjamini and Hochberg correction were subsequently performed using GeneSifter (VizX Labs, Seattle, Wash.) and Spotfire DecisionSite 8.3 (Spotfire, Inc., Somerville, Mass.).
Effects on Gene Expression Profile. […] One mouse heart was used for each array, and was performed in triplicate, generating a total of 12 arrays. GeneSifter was used to perform RMA normalization, pairwise comparisons of averaged signal intensity values, and Student's t-test with Benjamini and Hochberg correction, and Spotfire was used to perform pairwise comparisons. […] Additionally, genes that were altered between any two N or cardiac hypertrophy samples were removed, as these alterations most likely represented normal variations between mice.

C[C@H]1c2cccc(O)c2C(=O)C2=C(O)[C@]3(O)C(=O)C(C(N)=O)=C(O)[C@@H](N(C)C)[C@@H]3[C@@H](O)[C@@H]21 [doxycycline]
FC cDNA, AK012898 (CH vs normal 3.3): −2.9 fold | FC Cyclin G2 (Ccng2), NM_007635 (CH vs normal 3.4): −3.1 fold | FC TRAF2 and K interacting kinase (Tnik), AI117633 (CH vs normal 3.4): −3.4 fold | FC cDNA, BB098431 (CH vs normal 3.4): −1.8 fold | FC Interleukin-1 receptor-associated kinase 3 (Irak3), AV228493 (CH vs normal 3.5): −2.1 fold | FC CD163 antigen (CD163), NM_053094 (CH vs normal 3.6): −2.1 fold | FC ATP-binding cassette, sub-family A (ABC1), member 1 (Abca1), BB305534 (CH vs normal 3.7): −1.9 fold | FC Mcf.2 transforming sequee-like (Mcf21), AV293368 (CH vs normal 3.7): −2.3 fold | FC cDNA, BE956710 (CH vs normal 3.7): −4.4 fold | FC cDNA, BG276629 (CH vs normal 3.7): −3.1 fold | FC Lipopolysaccharide binding protein (Lbp), NM_008489 (CH vs normal 3.8): −3.4 fold | FC Alcohol dehydrogenase 1, complex (Adh1), BC013477 (CH vs normal 3.9): −3.4 fold | FC Nuclear factor of kappa light polypeptide gene enhaer in B-cells inhibitor, zeta (Nfkbiz), NM_030612 (CH vs normal 3.9): −2.7 fold | FC cDNA, BB038506 (CH vs normal 3.9): −2.1 fold | FC Alpha-2-HS-glycoprotein (Ahsg), AI256465 (CH vs normal 4.0): −2.7 fold | FC BCL2/adenovirus E1B interacting protein 1, NIP3 (Bnip3), NM_009760 (CH vs normal 4.1): −2.0 fold | FC Chitinase 3-like 3 (Chi313), NM_009892 (CH vs normal 4.1): −4.1 fold | FC Colony stimulating factor 2 receptor, beta 2, low-affinity (granulocyte-macrophage) (Csf2rb2), NM_007781 (CH vs normal 4.1): −2.9 fold | FC NADPH oxidase 4 (Nox4), BC021378 (CH vs normal 4.3): −3.2 fold | FC Calcium-sensitive chloride conductae protein-1 (Clca1), AF047838 (CH vs normal 4.4): −3.6 fold | FC Connector enhaer of kinase suppressor of Ras 1 (Cnksr1), BB739754 (CH vs normal 4.4): −3.6 fold | FC cDNA, AK008807 (CH vs normal 4.5): −2.7 fold | FC Arrestin domain containing 2 (Arrdc2), AW542672 (CH vs normal 4.6): −3.5 fold | FC cDNA, BM117672 (CH vs normal 4.6): −3.2 fold | FC Serum amyloid A 3 (Saa3), NM_011315 (CH vs normal 4.7): −4.1 fold | FC Caer related gene-liver 1 (CRG-L1), AF282864 (CH vs normal 4.9): −3.0 fold | FC Calcium/calmodulin-dependent protein kinase II, beta (Camk2b), BG862223 (CH vs normal 4.9): −4.0 fold | FC Aryl hydrocarbon receptor nuclear translocator-like (Arnt1), BC011080 (CH vs normal 5.0): −5.1 fold | FC Oostatin receptor (Osmr), NM_011019 (CH vs normal 5.1): −2.6 fold | FC cDNA, BE634869 (CH vs normal 5.2): −2.8 fold | FC cDNA, BB795572 (CH vs normal 5.3): −2.3 fold | FC cDNA, AK009753 (CH vs normal 5.4): −3.0 fold | FC cDNA, AI607873 (CH vs normal 5.5): −4.0 fold | FC Cytokine inducible SH2-containing protein 3 (Socs3), BB241535 (CH vs normal 6.0): −3.5 fold | FC Apolipoprotein D (Apod), NM_007470 (CH vs normal 6.4): −3.4 fold | FC Cytochrome P450, 1b1, benz(a)anthracene inducible (Cyp1b1), NM_009994 (CH vs normal 6.4): −3.2 fold | FC Membrane-spanning 4-domains, subfamily A, member 6d (Ms4a6d), NM_026835 (CH vs normal 6.4): −2.3 fold | FC mVL30-1 retroelement mRNA sequee, BG066678 (CH vs normal 6.6): −4.2 fold | FC Proteoglycan 4 (megakaryocyte stimulating factor, articular superficial zone protein) (Prg4), NM_021400 (CH vs normal 6.8): −3.3 fold | FC cDNA, BF719154 (CH vs normal 7.0): −3.2 fold | FC CCAATenhaer binding protein (CEBP), delta (Cebpd), BB831146 (CH vs normal 7.4): −4.1 fold | FC Ca(2+)-sensitive chloride channel 2 (Clca2), AF108501 (CH vs normal 7.4): −5.1 fold | FC Lysyl oxidase (Lox), M65143 (CH vs normal 7.4): −2.7 fold | FC cDNA, AU018141 (CH vs normal 7.8): −3.2 fold | FC Cytokine inducible SH2-containing protein 3 (Socs3), BB831725 (CH vs normal 8.2): −4.9 fold | FC cDNA, BF682848 (CH vs normal 10.6, first BF682848 line): −5.7 fold | FC C-type (calcium dependent, carbohydrate recognition domain) lectin, superfamily member 8 (Clecsf8), NM_010819 (CH vs normal 10.8): −2.7 fold | FC Lysyl oxidase (Lox), NM_010728 (CH vs normal 11.1): −3.0 fold | FC Cyclin-dependent kinase inhibitor 1A (p21) (Cdkn1a), AK007630 (CH vs normal 14.6): −6.5 fold | FC FK506 binding protein 5 (51 kDa) (Fkbp5), BC015260 (CH vs normal 16.3): −4.5 fold | FC cDNA, BF682848 (CH vs normal 21.4, second BF682848 line): −5.2 fold | FC Lipocalin 2 (Lcn2), X14607 (CH vs normal 27.7): −13.3 fold | FC Serine protease inhibitor 2-2 (Spi2-2) (Serpin3n), NM_009252 (CH vs normal 40.5): −9.7 fold | FC Metallophosphoesterase domain containing 2 (Mpped2), AK012553 (CH vs normal −1.5): 2.0 fold | FC ATP-sensitive potassium channel subunit (Kir6.2) (Kcnj11), U73626 (CH vs normal −1.6): 1.8 fold | FC CD99 antigen (CD99), AK002762 (CH vs normal −1.6): 1.6 fold | FC CD248 antigen, endosialin (CD248), NM_054042 (CH vs normal −1.6): 1.7 fold | FC cDNA, BB627097 (CH vs normal −1.6): 2.4 fold | FC cDNA, BM229539 (CH vs normal −1.6): 2.1 fold | FC Cytoplasmic polyadenylation element binding protein 3 (Cpeb3), BB281000 (CH vs normal −1.7): 2.6 fold
